Assay results from patent US20240299492A1, “COMBINATION THERAPIES WITH SIRP ALPHA-BASED CHIMERIC PROTEINS” (Shattuck Labs, Inc., priority 2021, published 2024).

Tests used:
CT26 tumor cells = assay: In vivo anti-tumor efficacy, CT26 colorectal carcinoma mouse allograft model; parameters: species or system BALB/C mice
Method: The efficacy of the SIRPα-Fc-CD40L chimeric protein was evaluated in combination with a spindle toxin. Towards that, the ability of paclitaxel and chimeric proteins to target and reduce tumor volume in vivo was determined. Briefly, BALB/C mice were inoculated with 500,000 CT26 tumor cells. When tumor volumes were approximately 50 to 60 mm^3 (day 0), the mice were randomly distributed in the following treatment groups: (1) vehicle only control, (2) 300 μg of the SIRPα-Fc-CD40L chimeric protein alone, (3) 24 mg/kg paclitaxel alone, and (4) a combination 300 μg of the SIRPα-Fc-CD40L chimeric protein and 24 mg/kg paclitaxel. The mice were dosed on days 0, 3 and 6 via intraperitoneal injections. Tumors were measured with electronic calipers on day 14 and plotted using the GraphPad Prism software.
The efficacy of the SIRPα-Fc-CD40L chimeric protein was evaluated in combination with an antimetabolite or. Towards that, the ability of 5-fluorouracil and chimeric proteins to target and reduce tumor volume in vivo was determined. Briefly, BALB/C mice were inoculated with 500,000 CT26 tumor cells. When tumor volumes were approximately 50 to 60 mm^3 (day 0), the mice were randomly distributed in the following treatment groups: (1) vehicle only control, (2) 300 μg of the SIRPα-Fc-CD40L chimeric protein alone, (3) 20 mg/kg 5-fluorouracil alone, and (4) a combination 300 μg of the SIRPα-Fc-CD40L chimeric protein and 20 mg/kg 5-fluorouracil. The mice were dosed via intraperitoneal injections as follows: the SIRPα-Fc-CD40L chimeric protein was administered on days 0, 3 and 6; and 5-fluorouracil was administered on days 0, 2 and 4. Tumors were measured with electronic calipers on day 11 and plotted using the GraphPad Prism software.
The efficacy of the SIRPα-Fc-CD40L chimeric protein was evaluated in combination with a topoisomerase I inhibitor. Towards that, the ability of irinotecan and chimeric proteins to target and reduce tumor volume in vivo was determined. Briefly, BALB/C mice were inoculated with 500,000 CT26 tumor cells. When tumor volumes were approximately 50 to 60 mm^3 (day 0), the mice were randomly distributed in the following treatment groups: (1) vehicle only control, (2) 300 μg of the SIRPα-Fc-CD40L chimeric protein alone, (3) 25 mg/kg irinotecan alone, and (4) a combination 300 μg of the SIRPα-Fc-CD40L chimeric protein and 25 mg/kg irinotecan. The mice were dosed on days 0 and 2 via intraperitoneal injections. Tumors were measured with electronic calipers on day 4 and plotted using the GraphPad Prism software.
The efficacy of the SIRPα-Fc-CD40L chimeric protein was evaluated in combination with an anthracycline. Towards that, the ability of doxorubicin and chimeric proteins to target and reduce tumor volume in vivo was determined. Briefly, BALB/C mice were inoculated with 500,000 CT26 tumor cells. When tumor volumes were approximately 50 to 60 mm^3 (day 0), the mice were randomly distributed in the following treatment groups: (1) vehicle only control, (2) 300 μg of the SIRPα-Fc-CD40L chimeric protein alone, (3) 8 mg/kg doxorubicin alone, and (4) a combination 300 μg of the SIRPα-Fc-CD40L chimeric protein and 8 mg/kg doxorubicin. The mice were dosed with the SIRPα-Fc-CD40L chimeric protein on days 0, 3 and 6 via intraperitoneal injections, and with doxorubicin thrice through the tail vein. Tumors were measured with electronic calipers on day 7 and plotted using the GraphPad Prism software.
The efficacy of the SIRPα-Fc-CD40L chimeric protein was evaluated in combination with a platinum compound. Towards that, the ability of cisplatin and chimeric proteins to target and reduce tumor volume in vivo was determined. Briefly, BALB/C mice were inoculated with 500,000 CT26 tumor cells. […]

[1] = test system: ARD1 human multiple myeloma (MM) cells; assay: Phagocytosis of ARD1 cells by human macrophages (flow cytometry): bortezomib and/or SIRPα-Fc-CD40L; format: cell-based; conditions: 1 pM bortezomib overnight and/or SIRPα-Fc-CD40L for 4 hours; combination p<0.0001 vs control; FIG. 3B
Method: (§1) In another experiment, the ARD1 human multiple myeloma (MM) cells were labeled with a green fluorescent tracker and treated with vehicle alone control or 1 pM bortezomib overnight. The following day, the tumor cells were washed in PBS and then co-cultured with human macrophages with or without the SIRPα-Fc-CD40L chimeric protein for 4 hours at 37° C. in the presence of 5% CO2. After this incubation, the cells were harvested and treated with an anti-CD11b antibody (a macrophage marker) and were analyzed using flow cytometry. Positive phagocytosis was determined by the overlap in signals of tumor (the green fluorescent tracker) and macrophage (anti-CD11b antibody staining). A phagocytosis index was calculated by setting the maximum phagocytosis value to 1, and then normalizing all other replicates accordingly. The phagocytosis index was plotted for the indicated treatments.

[2] = test system: MM1R human multiple myeloma (MM) cells; assay: Phagocytosis of MM1R cells by human macrophages (flow cytometry): bortezomib and/or SIRPα-Fc-CD40L; format: cell-based; conditions: 1 pM bortezomib overnight and/or SIRPα-Fc-CD40L for 4 hours; combination p<0.0001 vs control; FIG. 3A
Method: as §1, with “Briefly,” for “In another experiment,”, “MM1R” for “ARD1”

[3] = test system: KMS12B multiple myeloma cells; assay: Phagocytosis of KMS12B cells by M1 macrophages with activated T cells (flow cytometry): pomalidomide with or without SIRPα-Fc-CD40L; format: cell-based, human; conditions: 10 μM pomalidomide, CD3/CD28 activated T cells, M1 polarized macrophages, 4 hours; FIG. 7
Method: Briefly, CD14+ monocytes were isolated from human donor PBMCs and cultured with m-CSF (100 ng/ml) for 6 days. On day 6, IFNγ (100 ng/ml) and LPS (10 ng/ml) were added to the cells for an additional 24 hours, generating M1 polarized macrophages. On day 5 of the macrophage differentiation, another vial of PBMCs from the same human donor was thawed, and CD3 T cells were isolated using a magnetic bead isolation kit. These T cells were activated for 2 days with CD3/CD28 T cell magnetic activation beads. On day 7 when both the macrophages and T cells were activated and ready, they were combined with KMS12B multiple myeloma cells, which were labeled with a green fluorescent tracker, with 10 μM pomalidomide and with or without 50 μg/ml of the SIPRα-Fc-CD40L chimeric protein. KMS12B cells incubated with the macrophages and 10 μM pomalidomide, without T cells, were used as a negative control. This coculture was incubated for 4 hours at 37° C., 5% CO2. After this incubation, the cells were harvested and treated with an anti-CD11b antibody (a macrophage marker) and were analyzed using flow cytometry. Positive phagocytosis was determined by the overlap in signals of tumor (the green fluorescent tracker) and macrophage (anti-CD11b antibody staining). A phagocytosis index was calculated by setting the maximum phagocytosis value to 1, and then normalizing all other replicates accordingly. […]

[4] = test system: ARD1 human multiple myeloma (MM) cells; assay: Phagocytosis of ARD1 cells by human macrophages (IncuCyte phRodo Red imaging): daratumumab and/or SIRPα-Fc-CD40L; format: cell-based; conditions: 1 μg/ml daratumumab and/or 10 μg/ml SIRPα-Fc-CD40L, 2 hours, combination p<0.0001 vs vehicle, FIG. 6
Method: Briefly, the ARD1 human multiple myeloma (MM) cells were labeled the IncuCyte phRodo Red cell labeling kit and co-cultured with human macrophages and treated with (1) vehicle alone control, (2) 10 μg/ml of the SIRPα-Fc-CD40L chimeric protein, (3) 1 μg/ml of daratumumab (an antibody-dependent cellular phagocytosis (ADCP)-proficient anti-CD38 antibody), or (4) 1 μg/ml of an daratumumab and 10 μg/ml of the SIRPα-Fc-CD40L chimeric protein and incubated at 37° C. in the presence of 5% CO2 for 2 hours. Cultures were imaged using the IncuCyte time-lapse microscopy system, and positive phagocytosis was determined by an increase in red fluorescent intensity which occurs when the phRodo Red labeled tumor cell is internalized into the acidic macrophage phagosome. A phagocytosis index was calculated by setting the maximum phagocytosis value to 1, and then normalizing all other replicates accordingly. The phagocytosis index was plotted for the indicated treatments.

[5] = test system: ARD1 human multiple myeloma cells; assay: Phagocytosis of ARD1 cells by human macrophages (flow cytometry): elotuzumab and/or SIRPα-Fc-CD40L; format: cell-based; conditions: 1 μg/ml elotuzumab and/or SIRPα-Fc-CD40L (10 μg/ml alone; 10 pg/ml in the combination), 4 hours; combination p<0.05 vs vehicle; FIG. 8
Method: Briefly, the ARD1 human multiple myeloma cells were labeled with a green fluorescent tracker and co-cultured with human macrophages and treated with (1) vehicle alone control, (2) 10 μg/ml of the SIRPα-Fc-CD40L chimeric protein, (3) 1 μg/ml of elotuzumab (an antibody-dependent cellular phagocytosis (ADCP)-proficient anti-SLAMF7 antibody), or (4) 1 μg/ml of elotuzumab and 10 pg/ml of the SIRPα-Fc-CD40L chimeric protein and incubated at 37° C. in the presence of 5% CO2 for 4 hours. After this incubation, the cells were harvested and treated with an anti-CD11b antibody (a macrophage marker) and were analyzed using flow cytometry. Positive phagocytosis was determined by the overlap in signals of tumor (the green fluorescent tracker) and macrophage (anti-CD11b antibody staining). A phagocytosis index was calculated by setting the maximum phagocytosis value to 1, and then normalizing all other replicates accordingly. The phagocytosis index was plotted for the indicated treatments.

## O=c1[nH]cc(F)c(=O)[nH]1 [5-fluorouracil]
CT26 tumor cells; day 11, 300 μg SIRPα-Fc-CD40L (days 0, 3, 6) and/or 20 mg/kg 5-fluorouracil (days 0, 2, 4), intraperitoneal, combination vs vehicle p<0.01, vs 5-fluorouracil alone p<0.05, FIG. 10B
  tumor size: reduction in tumor size

## CC(C)C[C@H](NC(=O)[C@H](Cc1ccccc1)NC(=O)c1cnccn1)B(O)O [bortezomib]
[1]
  level of phagocytosis (phagocytosis index) compared to the control ARD1 cells: increased level of phagocytosis
[2]
  level of phagocytosis (phagocytosis index) compared to the control MM1R cells: increased level of phagocytosis

## N.N.[Cl][Pt][Cl] [cisplatin]
CT26 tumor cells; day 4, 300 μg SIRPα-Fc-CD40L (days 0 and 3) and/or 200 μg cisplatin (day 0), intraperitoneal, FIG. 10E
  tumor size: reduction in tumor size

## COc1cccc2c1C(=O)c1c(O)c3c(c(O)c1C2=O)C[C@@](O)(C(=O)CO)C[C@@H]3O[C@H]1C[C@H](N)[C@H](O)[C@H](C)O1 [doxorubicin]
CT26 tumor cells; day 7, 300 μg SIRPα-Fc-CD40L (intraperitoneal, days 0, 3, 6) and/or 8 mg/kg doxorubicin (thrice, tail vein), FIG. 10D
  tumor size: reduction in tumor size

## CCc1c2c(nc3ccc(OC(=O)N4CCC(N5CCCCC5)CC4)cc13)-c1cc3c(c(=O)n1C2)COC(=O)[C@]3(O)CC [irinotecan]
CT26 tumor cells; day 4, 300 μg SIRPα-Fc-CD40L and/or 25 mg/kg irinotecan, intraperitoneal, days 0 and 2, FIG. 10C
  tumor size: reduction in tumor size

## O=C1[O][Pt]2([NH][C@@H]3CCCC[C@H]3[NH]2)[O]C1=O [oxaliplatin]
CT26 tumor cells; day 4, 300 μg SIRPα-Fc-CD40L (days 0 and 3) and/or 10 mg/kg oxaliplatin (day 0), intraperitoneal, FIG. 10F
  tumor size: reduction in tumor size

## CC(=O)O[C@H]1C(=O)[C@@]2(C)[C@H]([C@H](OC(=O)c3ccccc3)[C@]3(O)C[C@H](OC(=O)[C@H](O)[C@@H](NC(=O)c4ccccc4)c4ccccc4)C(C)=C1C3(C)C)[C@]1(OC(C)=O)CO[C@@H]1C[C@@H]2O [paclitaxel]
CT26 tumor cells; day 14, 300 μg SIRPα-Fc-CD40L and/or 24 mg/kg paclitaxel, intraperitoneal, days 0, 3 and 6, FIG. 10A
  tumor size: reduction in tumor size

## Nc1cccc2c1C(=O)N(C1CCC(=O)NC1=O)C2=O (centres unmarked) [pomalidomide]
[3]
  phagocytosis of KMS12B cells incubated with T cells, macrophages and pomalidomide compared to incubation without T cells (negative control): increased phagocytosis

## daratumumab: an antibody-dependent cellular phagocytosis (ADCP)-proficient anti-CD38 antibody
[4]
  level of phagocytosis (phagocytosis index) compared to the vehicle only-treated ARD1 cells: increased level of phagocytosis

## elotuzumab: an antibody-dependent cellular phagocytosis (ADCP)-proficient anti-SLAMF7 antibody
[5]
  level of phagocytosis (phagocytosis index) compared to the vehicle only-treated ARD1 cells: increased level of phagocytosis
